In data set [1] the test system is Bacillus cerreus ATCC 14579. In words: MIC, serial broth microdilution, B. cerreus. It counts as cell-based. The note with it: 24 h, 37 °C. The method, then:
The values of MIC, defined as the lowest concentration of antimicrobial complex that prevents visible growth of germs, are presented in Table S4 in the Supplementary Material. To quantify the copper complexes effectiveness as antibacterial agents, their minimum inhibitory concentrations (MICs) were determined using the serial broth microdilution method described by Quinn et al. and Markey et al.. The method was adapted for the purposes of the current study, according to the standards developed by the Clinical and Laboratory Standards Institute. The tests were performed on the same Gram-positive and Gram-negative reference microbial strains. Ten successive dilutions of the copper complexes solutions (1/2 to 1/1024) in nutrient broth (Merck KGaA, Darmstadt, Germany) were performed and then were placed in sterile microplates (one each for every copper complex). The microplates were incubated at 37 ± 2 °C for 24 h. Comparisons of the amount of bacterial growth in each well containing copper complexes solutions with the amount of growth in the growth control wells were performed and the maximal dilution for which the tested copper complexes inhibited bacterial growth was determined.
(In broth dilution the organism is exposed to a series of concentrations in liquid medium.)

Data set [2] in a line: SOD mimetic activity, xanthine/xanthine oxidase system, NBT reduction. The note with it: pH 7.8, read-out: SOD-like activity IC50 (50% inhibition of NBT reduction). It counts as biochemical. The method, then: The SOD-like activities of complexes C1 and C2 were determined by an indirect method using the xanthine/xanthine oxidase system as the source of superoxide radicals. […] The IC50 value for native Cu2Zn2SOD is 0.006 μΜ. Thus, the IC50 values for both complexes are higher than the IC50 value for native Cu2Zn2SOD but are similar to those of complexes with related sulfonamide ligands presented in the literature.
The in vitro SOD mimetic activities of the complexes were assayed using the Oberley and Spitz method with some minor modifications. To generate a reproductible and constant flux of superoxide anions, xanthine (1.5 × 10^−4 M) and xanthine oxidase in 50 mM potassium phosphate buffer, pH = 7.8, were used. The superoxide anions were detected by the reduction of nitro blue tetrazolium (NBT) (5.6 × 10^−5 M) to blue formazane, which was determined spectrophotometrically at 560 nm. Different concentrations of the complexes (50, 25, 12.5, 2, and 0.2 μM) were prepared in 50 mM Tris-HCl buffer, pH = 7.8. For each determination, 0.1 mL complex solution + 0.1 mL xanthine oxidase were added to 0.8 mL of solution containing 0.69 mL potassium phosphate buffer (pH = 7.8), 0.025 mL NBT, and […]. The inhibition percentage of NBT reduction was used to determine the SOD activities of the complexes. The conversion of xanthine to uric acid was measured at 310 nm. The % inhibition of enzyme activity was subtracted from that of NBT. The IC50 values (the concentration of complex needed to yield 50% inhibition of NBT reduction) were determined from plots of % inhibition versus complex concentration. A Specord 200 Plus Spectrophotometer was used to perform the determinations and all reagents were purchased from Sigma-Aldrich.

In the next data set the test system is Swiss mice. The note with it: mouse, in vivo, ip, 150 mg/kg/day. The procedure:
This study was carried out for a period of 2 weeks on 10 adult Swiss mice, with 5 males and 5 females.
A subacute toxicity study was carried out for a period of 2 weeks for the C2 complex. In total, 10 adult Swiss mice, 32.26 ± 1.3 g body weight, with 5 males and 5 females, were used. The mice were caged in standard polypropylene cages, in standard laboratory conditions (12 h light/dark cycle, temperature 25 ± 1 °C, and relative humidity 55 ± 5%). Standard lab chow, provided by the “Cantacuzino” National Insitute for Research and Development Bucharest, and water were freely available. All procedures performed on mice complied with the European Directive 2010/63/EU and the national low 43/2014 for Protection of Animals Used for Scientific Purposes. This study was approved by the Bioethical Board of the Faculty of Veterinary Medicine Cluj-Napoca (accord no.290/22.11.2021) and the Veterinary Sanitary Direction and Food Safety (accord no.284/21.12.2021). All mice received i.p. 150 mg complex C2/kg b.w./day, for 2 weeks. […]
The general clinical status and the body weight were recorded daily. […]
The liver and kidneys were also removed. […] To determine the hematological toxicity, erythrogram, leukogram, and thrombogram were assessed using a Diatron Abascus Junior Vet 3.

The MIC is the smallest concentration in the dilution series that meets the test's criterion for growth inhibition. Low values mean greater potency, high ones weaker potency. Usually IC50 stands for the concentration needed to halve the response being measured. Consider “[Cu(N-(5-(4-Methylphenyl)-[1,3,4]-Thiadiazole-2-yl) Naphtalenesulfonamidate)2(H2O)3] [C1]”, for which, in data set [1], the MIC was determined as 0.304 µg/mL. For the same substance, the IC50 in data set [2] stood at 283 nM.

Substance “[Cu(N-(5-Ethyl--[1,3,4]-Thiadiazole-2-yl) Naphtalenesulfonamidate)2(py)2(H2O)] [C2]” displayed an MIC in data set [1] of 0.293 µg/mL. Besides, in the data set with Swiss mice, the clinical changes result is recorded as “did not undergo clinical changes”; the “histological analyses of kidney and liver” value is on record as “normal structure”. Also, the IC50 in data set [2] was 174 nM.

Values taken from paper PMC9144936, “New Cu^+2 Complexes with N-Sulfonamide Ligands: Potential Antitumor, Antibacterial, and Antioxidant Agents” (Molecules, 2022).
